Molecules are shown by their SMILES.

Chain of EGFR (human) (P00533 whole entry, looked up): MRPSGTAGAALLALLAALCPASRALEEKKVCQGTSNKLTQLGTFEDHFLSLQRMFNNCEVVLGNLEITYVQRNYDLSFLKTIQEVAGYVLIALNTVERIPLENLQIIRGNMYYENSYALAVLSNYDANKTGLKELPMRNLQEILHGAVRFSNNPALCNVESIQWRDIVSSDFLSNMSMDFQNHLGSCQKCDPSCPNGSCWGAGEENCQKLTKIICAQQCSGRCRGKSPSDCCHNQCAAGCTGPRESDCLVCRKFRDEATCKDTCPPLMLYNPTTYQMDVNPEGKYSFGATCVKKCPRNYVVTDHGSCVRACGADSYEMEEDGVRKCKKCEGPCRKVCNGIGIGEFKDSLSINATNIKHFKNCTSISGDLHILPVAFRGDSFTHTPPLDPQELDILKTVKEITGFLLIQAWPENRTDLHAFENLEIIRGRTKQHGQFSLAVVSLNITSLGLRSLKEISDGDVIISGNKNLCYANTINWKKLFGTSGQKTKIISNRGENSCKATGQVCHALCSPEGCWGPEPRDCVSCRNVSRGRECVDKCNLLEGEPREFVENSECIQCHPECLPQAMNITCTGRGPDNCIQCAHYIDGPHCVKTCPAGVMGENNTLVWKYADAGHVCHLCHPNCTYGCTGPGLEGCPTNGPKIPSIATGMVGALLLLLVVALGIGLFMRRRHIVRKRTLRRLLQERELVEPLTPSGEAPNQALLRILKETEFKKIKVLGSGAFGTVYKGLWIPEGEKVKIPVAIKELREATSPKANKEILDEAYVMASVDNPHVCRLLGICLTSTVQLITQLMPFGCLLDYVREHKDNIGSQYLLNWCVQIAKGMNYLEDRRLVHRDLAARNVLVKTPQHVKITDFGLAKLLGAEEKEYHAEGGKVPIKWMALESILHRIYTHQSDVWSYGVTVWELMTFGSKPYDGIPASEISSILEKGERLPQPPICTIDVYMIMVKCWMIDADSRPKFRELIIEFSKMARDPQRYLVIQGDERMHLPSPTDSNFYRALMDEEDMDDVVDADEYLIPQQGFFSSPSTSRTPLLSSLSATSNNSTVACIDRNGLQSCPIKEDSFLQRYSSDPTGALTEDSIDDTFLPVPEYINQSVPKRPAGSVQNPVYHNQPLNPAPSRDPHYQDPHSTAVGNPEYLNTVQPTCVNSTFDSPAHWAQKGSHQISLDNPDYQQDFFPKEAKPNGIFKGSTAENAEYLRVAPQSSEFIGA

This test addresses EGFR (human) (UniProt P00533). The conditions noted are these: mcf-7.
In general, IC50 refers to the concentration at which inhibition is half-maximal. `CCOc1ccc2nc(C)cc(Nc3ccc(S(=O)(=O)Nc4ncccn4)cc3)c2c1` gave a half-inhibitory concentration (IC50) of 3.96 nM.

On to `COc1cc2nc(Cl)nc(Nc3ccc(S(=O)(=O)Nc4nccs4)cc3)c2cc1OC`, for which the IC50 worked out at 0.13 nM.

Compound `CCOc1ccc2nc(C)cc(Nc3ccc(S(=O)(=O)NC(=N)N)cc3)c2c1` yielded an IC50 of 19.2 nM.

With `CCOc1ccc2nc(C)cc(Nc3ccc(S(=O)(=O)Nc4cc(C)on4)cc3)c2c1`, the concentration for half-maximal inhibition (IC50) was 13.8 nM.

`COc1cc2nc(Cl)nc(N3CCN(S(=O)(=O)c4ccc(C)cc4)CC3)c2cc1OC` registered an IC50 of 1.08 nM.

For the compound `COc1cc2nc(Cl)nc(Nc3ccc(S(=O)(=O)Nc4cc(C)on4)cc3)c2cc1OC`, the half-inhibitory concentration (IC50) was 1.98 nM.

On to `CCOc1ccc2nc(C)cc(N3CCN(C(=O)c4ccco4)CC3)c2c1`, for which the IC50 turned out to be 4.31 nM.

As to `CCOc1ccc2nc(C)cc(Nc3ccc(Cl)cc3Cl)c2c1`, the half-maximal inhibitory concentration (IC50) was determined as 4.38 nM.

For `CCOc1ccc2nc(C)cc(Nc3cccc(O)c3)c2c1`, the half-inhibitory concentration (IC50) is 2.84 nM.

For `CCOc1ccc2nc(C)cc(Nc3cc(OC)c(OC)cc3C(=O)OC)c2c1`, the IC50 stood at 1.67 nM.

These data come from the Kinase Knowledgebase extract (Sharma et al. 2016).
